Results as given in publication PMC10778976, “BAY-3827 and SBI-0206965: Potent AMPK Inhibitors That Paradoxically Increase Thr172 Phosphorylation” (International Journal of Molecular Sciences, 2023).

What was measured:
[1] = design: method as in PMID 35802287; conditions: cited from earlier work
purified rat liver AMPK = assay: Allosteric activation of rat liver AMPK by AMP with and without BAY-3827; assay type: biochemical; conditions: BAY-3827 30 nM
Text: AMPK assays measured the transfer of radioactivity from labelled ATP to a peptide substrate, which was separated from unreacted ATP by binding to P81 paper. This assay was described previously, except that we used [γ-^33P]ATP rather than [γ-^32P]ATP. The peptide substrate was the AMARA peptide in all experiments other than one, which analyzed allosteric activation by AMP (Figure 2A), when, for technical reasons, the SAMS peptide was used instead. With purified preparations of AMPK, it was assayed in solution, but for assays in cell lysates (Figure 3D and Figure 4D), it was first immunoprecipitated using a mixture of anti-α1 and -α2 antibodies and assayed in resuspended immunoprecipitates. After the initial immunoprecipitation of lysate containing 80 µg of protein, the pellets were washed twice with 1 mL of high salt IP buffer (50 mM Tris-HCL, pH 7.4 at 4 °C, 1 M NaCl, 1 mM EDTA, 1 mM EGTA, 50 mM NaF, 5 mM Na pyrophosphate, 1 mM dithiothreitol, 0.1% (v/v) Triton X-100) and twice with 1 mL of low salt IP buffer (as above but only 150 mM NaCl), followed by a final wash in 1 mL of assay buffer (50 mM Na Hepes, pH7.4, 150 mM NaCl, 1 mM dithiothreitol, 0.02% (v/v) Brij-35). After each wash, the pellet was recovered via centrifugation (16,000× g, 3 min) and then resuspended. The final resuspended pellets from each biological replicate were divided into two aliquots (40 µg lysate protein) to provide technical replicates and assayed as above.

[2] = Pharmacokinetic study in mice, blood levels by LC:MS; assay type: in vivo, NOD-SCID mice; conditions: 10 mg/kg oral gavage after 1-aminobenzotriazole 50 mg/kg
Method: All experiments with live animals were approved in advance by the Ethical Review Committee of the University of Dundee in accordance with the UK Animal (Scientific Procedures) Act 1986. Two female mice of the NOD-SCID strain were obtained from Charles River Laboratories, UK. The animals were maintained under a 12 h light/12 h dark cycle. The animals were allowed ad libitum access to food (RM1; Special Diet Services, UK) and water. Temperature and relative humidity were maintained between 20 and 24 °C and 45 and 65%, respectively. All animals received a minimum of 14 days acclimatization prior to the start of the study. 1-Aminobenzotriazole was dissolved on the day of dosing in Milli-Q ultrapure water at a concentration of 10 mg/mL and dosed via oral gavage at a dose level of 50 mg/kg. BAY-3827 was suspended in 0.5% hydroxypropylmethylcellulose (Methocel K15M Premium USP/EP; Colorcon) in water, at a concentration of 2 mg/mL. The BAY-3827 formulation was dosed via oral gavage at a dose level of 10 mg/kg, 30 min after the administration of 1-aminobenzotriazole. The animals were observed regularly after dose administration. […]
A Waters Acquity Performance Liquid Chromatography coupled to a Waters Xevo TQ-S tandem mass spectrometer was used for the quantification of BAY-3827, using donepezil hydrochloride as an internal standard. […]
Calibration samples, QC samples, blanks, double blanks, and study samples were extracted through protein precipitation. […] The resultant supernatant from the calibration samples, QCs, double blanks, and blanks (200 µL) and study samples (80 µL) was then transferred to HPLC glass vials containing Milli-Q water (100 µL or 40 µL, respectively) to reduce the solvent strength ready for UHPLC/MS analysis.
The sample concentrations were determined via a linear regression (weighting: 1/x) on the calibration samples using Waters TargetLynx application (v4.2). […] The lower limit of quantification (LLoQ) was determined as the analyte response with ≥three times the analyte response of the blanks (plasma with internal standard but not analyte). […]

Compound	elimination half-life [1]	relative oral availability [1]	fold increase of EC50 for AMP (purified rat liver AMPK) [fold]	basal activity (without AMP) (purified rat liver AMPK; control without inhibitor 135) [nmol/min/mg]	blood concentration ([2]; after 4–8 h) [nM]	peak blood concentration (mean) ([2]; at 60 min)	concentration at 8 h ([2]; female, NOD-SCID, mouse, whole blood, after 8 h) [nM]
CNC(=O)c1ccccc1Oc1nc(Nc2cc(OC)c(OC)c(OC)c2)ncc1Br [SBI-0206965]	short	low	–	–	–	–	–
CCc1ccccc1C(=O)Nc1n[nH]c2c(C)c(F)c(C3C(C#N)=C(C)N(C)C(C)=C3C#N)cc12 [BAY-3827]	–	–	5	46	20 to 30	90 nM and ≈ 90 nM	20
